{
  "source": "patent US12569502B2",
  "about": "“Use of bile acids and derivatives thereof in preparation of GPR39 agonist” (PEKING UNIVERSITY, priority 2019, dated 2026)",
  "target": "T1, GPR39 receptors on m39-20 cell lines (Mus musculus, UniProt Q5U431, T447P)",
  "T1 construct": "P2A-mCherry (C); expressed in transfected cells",
  "T1 sequence (Q5U431 1-456 T447P)": "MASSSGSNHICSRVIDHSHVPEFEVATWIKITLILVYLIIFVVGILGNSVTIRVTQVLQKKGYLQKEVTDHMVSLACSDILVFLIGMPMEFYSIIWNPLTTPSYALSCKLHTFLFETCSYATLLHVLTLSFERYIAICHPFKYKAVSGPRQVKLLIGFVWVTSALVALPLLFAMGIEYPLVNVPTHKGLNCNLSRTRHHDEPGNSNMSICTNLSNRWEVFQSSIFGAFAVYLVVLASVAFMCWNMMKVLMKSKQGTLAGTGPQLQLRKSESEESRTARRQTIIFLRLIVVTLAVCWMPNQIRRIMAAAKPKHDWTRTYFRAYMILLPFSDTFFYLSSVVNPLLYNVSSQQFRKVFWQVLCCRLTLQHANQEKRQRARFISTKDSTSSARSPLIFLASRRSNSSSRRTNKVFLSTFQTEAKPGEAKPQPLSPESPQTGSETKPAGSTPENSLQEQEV",
  "assay": "FLIPR calcium imaging on m39-20 cell lines stably expressing murine-derived GPR39",
  "type": "cell-based",
  "conditions": "for intracellular calcium signals in m39-20 cell lines: FIG. 1",
  "from_the_text": "Intracellular calcium imaging is a routine technique to study cell functions, the basic principle of which is to detect the concentration of the calcium ion in tissues or cells using a calcium indicator, thereby reflecting certain reactions in the tissues or cells. In the present application, the intracellular calcium released from a cell line that stably or transiently expresses GPR39 is detected using Fluo8-AM, a calcium fluorescent indicator, so as to determine the activation of the GPR39 receptor by the bile acid and derivative thereof.\nHEK293T cells (purchased from ATCC) were seeded in a 6-well plate (coming Co.) at an appropriate density (about 0.5-2×10^5/well). When the cell density reached above 30%, the plasmid PLVXK-mGPR39-P2A-mCherry was transfected with Lipofectamine 3000 (Invitrogen) at a concentration of 2 μg per well. The cells were passaged 24 hours after transfection, the puromycin (gibco) was added into the medium at a concentration of 2 μg/mL for antibiotic screening of cells. After 2-4 days of continuous screening, the cells screened for puromycin resistance were trypsinized and screened by flow cytometry for monoclones with red fluorescence. And these monoclones were seeded in a 96-well plate and cultured in a medium without puromycin for around 10 days. Cell colonies with red fluorescence were sorted under a fluorescence microscope, trypsinized and then passaged and expanded in a 6-well plate. Cell lines m39-20 stably expressing murine-derived GPR39 were obtained through the above methods.\nCalcium dye Fluo8-AM (ATT bioquest Co.) was dissolved in DMSO solvent to formulate a stock solution of 1 μg/μL. […] After then, the calcium dye working solution was replaced with the 4K solution (50 μL per well), and acclimated for 5 min at room temperature for the subsequent calcium imaging experiment.\nBile acids and derivatives thereof as listed in Table 1 below were dissolved in dimethyl sulfoxide (DMSO, Sigma Co.) solvent to formulate a stock solution of 50 mM, which was stored at −20° C. During calcium imaging with FLIPR, the drug was diluted with the above 4K solution into a working concentration of 400 μM, and packaged into another 96-well plate. […] The instrument parameters were set so that 50 μL of the drug solution may be added into the culture wells within 2 s. The fluorescence recording result within the first 30 seconds was used as the baseline value. The FLIPR robot arm was programmed to automatically add bile acids and derivatives thereof into the cell sample culture wells at the 31st second. 1% of DMSO solvent was used as the blank control.\nAfter that, the calcium dye working solution was replaced with a 4K solution containing 4 μM zinc ions (50 μL per well), followed by acclimation for 5 min at room temperature.",
  "note": "Where two headings read alike, the source gives them in different places.",
  "data": [
    {"smiles": "[Zn+2]", "note": "[Zinc ions, reference compound]", "values": [
      {"measurement": "intracellular calcium signals in m39-20 cell lines", "value": "inducing intracellular calcium signals"}
    ]},
    {"smiles": "C[C@H](CCC(=O)O)[C@H]1CC[C@H]2[C@@H]3CC[C@@H]4C[C@H](OS(=O)(=O)O)CC[C@]4(C)[C@H]3CC[C@]12C", "note": "[LCAS]", "values": [
      {"measurement": "EC50", "setting": "Bile acid + 4 μM zinc ions EC50, m39-20 cells, 4 μM zinc ions", "value": "0.88 ± 0.16", "unit": "µM"},
      {"measurement": "intracellular calcium signals in m39-20 cell lines", "value": "varying extents of intracellular calcium signals"},
      {"measurement": "intracellular calcium signaling response in m39-20 cells", "setting": "absence of zinc ions", "value": "strong intracellular calcium signaling response"},
      {"measurement": "Only bile acid Efficacy", "setting": "activation efficacy, m39-20 cells, no zinc ions", "value": "111.1 ± 3.9", "unit": "%"},
      {"measurement": "change of activation efficacy after the addition of zinc ions", "setting": "m39-20 cells, Table 1, FIG. 2", "value": "increases slightly"},
      {"measurement": "activation capacity on GPR39 receptors among the bile acids", "setting": "m39-20 cells, dose curves", "value": "strongest activation capacity"},
      {"measurement": "EC50", "setting": "m39-20 cells, no zinc ions, read-out: Only bile acid EC50", "value": "41 ± 4.5", "unit": "µM"},
      {"measurement": "EC50", "setting": "m39-20 cells, zinc ions 0 μM, read-out: EC50", "value": "31 ± 2.1", "unit": "µM"},
      {"measurement": "EC50", "setting": "m39-20 cells, zinc ions 0.05 μM, read-out: EC50", "value": "30.7 ± 2.4", "unit": "µM"},
      {"measurement": "EC50", "setting": "m39-20 cells, zinc ions 0.1 μM, read-out: EC50", "value": "30.6 ± 2", "unit": "µM"},
      {"measurement": "EC50", "setting": "m39-20 cells, zinc ions 0.2 μM, read-out: EC50", "value": "25.4 ± 1.1", "unit": "µM"},
      {"measurement": "EC50", "setting": "m39-20 cells, zinc ions 0.4 μM, read-out: EC50", "value": "20.1 ± 0.67", "unit": "µM"},
      {"measurement": "EC50", "setting": "m39-20 cells, zinc ions 1 μM, read-out: EC50", "value": "6.4 ± 0.67", "unit": "µM"},
      {"measurement": "EC50", "setting": "m39-20 cells, zinc ions 2 μM, read-out: EC50", "value": "1.9 ± 0.03", "unit": "µM"},
      {"measurement": "EC50", "setting": "m39-20 cells, zinc ions 4 μM, read-out: EC50", "value": "0.7 ± 0.03", "unit": "µM"}
    ]}
  ]
}
